Experimental data as given in PubChem BioAssay AID1963848 (Molecular Pharmacology Branch, DTP, NCI, 2024).

Test system: 379773-124-R-J2-PDC spheroid viability
Assay: Anticancer human tumor 379773-124-R-J2-PDC patient-derived endometrial carcinoma cell line growth inhibition [POLQ]
Conditions: spheroids with HUVEC and MSC; for IC50: curve of first compound; for viability, T/C: stronger effect = lower value
How it was run: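 Complex spheroid viability model combining PDC tumour cells with endothelial (HUVEC) and MSC stromal cells. Novobiocin, ART-558 or RP6685 were tested singly and in combination with standard and investigational anticancer drugs. Each was titrated in half-log steps from near clinical Cmax, or from 10 microM where Cmax was unknown.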

[1] = second compound 0.0316 µM, first compound 0.0316 µM
[2] = second compound 0.0316 µM, first compound 0.1 µM
[3] = second compound 0.0316 µM, first compound 0.316 µM
[4] = second compound 0.0316 µM, first compound 1 µM
[5] = second compound 0.0316 µM, first compound 3.16 µM
[6] = second compound 0.0316 µM, first compound 10 µM
[7] = second compound 0.1 µM, first compound 0.0316 µM
[8] = second compound 0.1 µM, first compound 0.1 µM
[9] = second compound 0.1 µM, first compound 0.316 µM
[10] = second compound 0.1 µM, first compound 1 µM
[11] = second compound 0.1 µM, first compound 3.16 µM
[12] = second compound 0.1 µM, first compound 10 µM
[13] = second compound 0.316 µM, first compound 0.0316 µM
[14] = second compound 0.316 µM, first compound 0.1 µM
[15] = second compound 0.316 µM, first compound 0.316 µM
[16] = second compound 0.316 µM, first compound 1 µM
[17] = second compound 0.316 µM, first compound 3.16 µM
[18] = second compound 0.316 µM, first compound 10 µM
[19] = second compound 1 µM, first compound 0.0316 µM
[20] = second compound 1 µM, first compound 0.1 µM
[21] = second compound 1 µM, first compound 0.316 µM
[22] = second compound 1 µM, first compound 1 µM
[23] = second compound 1 µM, first compound 3.16 µM
[24] = second compound 1 µM, first compound 10 µM
[25] = second compound 3.16 µM, first compound 0.0316 µM
[26] = second compound 3.16 µM, first compound 0.1 µM
[27] = second compound 3.16 µM, first compound 0.316 µM
[28] = second compound 3.16 µM, first compound 1 µM
[29] = second compound 3.16 µM, first compound 3.16 µM
[30] = second compound 3.16 µM, first compound 10 µM
[31] = second compound 10 µM, first compound 0.0316 µM
[32] = second compound 10 µM, first compound 0.1 µM
[33] = second compound 10 µM, first compound 0.316 µM
[34] = second compound 10 µM, first compound 1 µM
[35] = second compound 10 µM, first compound 3.16 µM
[36] = second compound 10 µM, first compound 10 µM
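Note: spheroids exposed to drugs for seven days before readout.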
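Throughout, for viability, T/C: percent viability relative to DMSO vehicle control taken as 100%.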

CC(=O)O[C@H]1C(=O)[C@@]2(C)[C@H]([C@H](OC(=O)c3ccccc3)[C@]3(O)C[C@H](OC(=O)[C@H](O)[C@@H](NC(=O)c4ccccc4)c4ccccc4)C(C)=C1C3(C)C)[C@]1(OC(C)=O)CO[C@@H]1C[C@@H]2O + Nc1ccc(C#CCN(C(=O)Cc2ncc(C(F)(F)F)cc2C(F)(F)F)c2ccc(F)cc2)nn1
IC50 (second compound 0.0316 µM): < 0.00949 µM
IC50 (second compound 0.1 µM): < 0.00949 µM
IC50 (second compound 0.316 µM): < 0.00949 µM
IC50 (second compound 1 µM): < 0.00949 µM
IC50 (second compound 3.16 µM): < 0.00949 µM
IC50 (second compound 10 µM): < 0.00949 µM
viability, T/C (second compound 0.0316 µM, first compound 0.00949 µM): 22.9%
viability, T/C (second compound 0.0316 µM, first compound 0.03 µM): 8.34%
viability, T/C (second compound 0.0316 µM, first compound 0.0949 µM): 8.59%
viability, T/C (second compound 0.0316 µM, first compound 0.3 µM): 12%
viability, T/C (second compound 0.0316 µM, first compound 0.949 µM): 7.39%
viability, T/C (second compound 0.0316 µM, first compound 3 µM): 10.1%
viability, T/C (second compound 0.1 µM, first compound 0.00949 µM): 19%
viability, T/C (second compound 0.1 µM, first compound 0.03 µM): 11.5%
viability, T/C (second compound 0.1 µM, first compound 0.0949 µM): 8.46%
viability, T/C (second compound 0.1 µM, first compound 0.3 µM): 9.83%
viability, T/C (second compound 0.1 µM, first compound 0.949 µM): 9.69%
viability, T/C (second compound 0.1 µM, first compound 3 µM): 8.71%
viability, T/C (second compound 0.316 µM, first compound 0.00949 µM): 23.7%
viability, T/C (second compound 0.316 µM, first compound 0.03 µM): 9.89%
viability, T/C (second compound 0.316 µM, first compound 0.0949 µM): 10.2%
viability, T/C (second compound 0.316 µM, first compound 0.3 µM): 12.1%
viability, T/C (second compound 0.316 µM, first compound 0.949 µM): 10.1%
viability, T/C (second compound 0.316 µM, first compound 3 µM): 9.75%
viability, T/C (second compound 1 µM, first compound 0.00949 µM): 28.3%
viability, T/C (second compound 1 µM, first compound 0.03 µM): 10.3%
viability, T/C (second compound 1 µM, first compound 0.0949 µM): 10.1%
viability, T/C (second compound 1 µM, first compound 0.3 µM): 9.22%
viability, T/C (second compound 1 µM, first compound 0.949 µM): 10.3%
viability, T/C (second compound 1 µM, first compound 3 µM): 8.87%
viability, T/C (second compound 3.16 µM, first compound 0.00949 µM): 23.4%
viability, T/C (second compound 3.16 µM, first compound 0.03 µM): 9.86%
viability, T/C (second compound 3.16 µM, first compound 0.0949 µM): 9.86%
viability, T/C (second compound 3.16 µM, first compound 0.3 µM): 10.8%
viability, T/C (second compound 3.16 µM, first compound 0.949 µM): 11%
viability, T/C (second compound 3.16 µM, first compound 3 µM): 9.15%
viability, T/C (second compound 10 µM, first compound 0.00949 µM): 25.1%
viability, T/C (second compound 10 µM, first compound 0.03 µM): 10.9%
viability, T/C (second compound 10 µM, first compound 0.0949 µM): 9.07%
viability, T/C (second compound 10 µM, first compound 0.3 µM): 10.1%
viability, T/C (second compound 10 µM, first compound 0.949 µM): 8.38%
viability, T/C (second compound 10 µM, first compound 3 µM): 8.52%

COc1ccc([C@@H](O)c2cc(-c3ncnc4cc(N5CCOCC5)ccc34)c(F)cc2Cl)nn1 + Cc1cccc(N(C)C(=O)C2C(O)CCN2c2nc(C)cc(C(F)(F)F)c2C#N)c1
IC50 (second compound 0.0316 µM): 6.33 µM
IC50 (second compound 0.1 µM): 5.88 µM
IC50 (second compound 0.316 µM): 7 µM
IC50 (second compound 1 µM): 6.79 µM
IC50 (second compound 3.16 µM): 6.78 µM
IC50 (second compound 10 µM): 6.19 µM
viability, T/C [1]: 81.3%
viability, T/C [2]: 83.6%
viability, T/C [3]: 94.3%
viability, T/C [4]: 96.3%
viability, T/C [5]: 75%
viability, T/C [6]: 33.5%
viability, T/C [7]: 87%
viability, T/C [8]: 89.6%
viability, T/C [9]: 92%
viability, T/C [10]: 87.1%
viability, T/C [11]: 64.1%
viability, T/C [12]: 37.9%
viability, T/C [13]: 81.5%
viability, T/C [14]: 82.1%
viability, T/C [15]: 101%
viability, T/C [16]: 82.4%
viability, T/C [17]: 73%
viability, T/C [18]: 39.8%
viability, T/C [19]: 97.2%
viability, T/C [20]: 85.4%
viability, T/C [21]: 92%
viability, T/C [22]: 81.8%
viability, T/C [23]: 83.8%
viability, T/C [24]: 33.4%
viability, T/C [25]: 87.3%
viability, T/C [26]: 85.5%
viability, T/C [27]: 96.7%
viability, T/C [28]: 74.8%
viability, T/C [29]: 81.6%
viability, T/C [30]: 35%
viability, T/C [31]: 74.8%
viability, T/C [32]: 78.5%
viability, T/C [33]: 85.2%
viability, T/C [34]: 80%
viability, T/C [35]: 82.2%
viability, T/C [36]: 28.4%

CCc1cc2c(N3CCc4c(cc(Cn5ccnc5)cc4-c4cn(C)nc4C(F)(F)F)C3=O)ccnc2c(OC)n1 + Nc1ccc(C#CCN(C(=O)Cc2ncc(C(F)(F)F)cc2C(F)(F)F)c2ccc(F)cc2)nn1
IC50 (second compound 0.0316 µM): > 10 µM
IC50 (second compound 0.1 µM): > 10 µM
IC50 (second compound 0.316 µM): > 10 µM
IC50 (second compound 1 µM): > 10 µM
IC50 (second compound 3.16 µM): > 10 µM
IC50 (second compound 10 µM): > 10 µM
viability, T/C [1]: 83.1%
viability, T/C [2]: 68.2%
viability, T/C [3]: 61.3%
viability, T/C [4]: 59.1%
viability, T/C [5]: 61.6%
viability, T/C [6]: 54.8%
viability, T/C [7]: 65.1%
viability, T/C [8]: 71.1%
viability, T/C [9]: 61.2%
viability, T/C [10]: 62.8%
viability, T/C [11]: 56.2%
viability, T/C [12]: 53.9%
viability, T/C [13]: 74.3%
viability, T/C [14]: 72.3%
viability, T/C [15]: 67%
viability, T/C [16]: 64.8%
viability, T/C [17]: 59.1%
viability, T/C [18]: 49.9%
viability, T/C [19]: 84.5%
viability, T/C [20]: 69%
viability, T/C [21]: 65.2%
viability, T/C [22]: 64.8%
viability, T/C [23]: 56%
viability, T/C [24]: 53.6%
viability, T/C [25]: 71.4%
viability, T/C [26]: 69.7%
viability, T/C [27]: 65.8%
viability, T/C [28]: 70.8%
viability, T/C [29]: 60%
viability, T/C [30]: 52.6%
viability, T/C [31]: 85.4%
viability, T/C [32]: 79.2%
viability, T/C [33]: 61.6%
viability, T/C [34]: 67.5%
viability, T/C [35]: 55%
viability, T/C [36]: 49.6%

COc1cc2cc(C(=O)CCC(=O)O)sc2cc1OC + Cc1cccc(N(C)C(=O)C2C(O)CCN2c2nc(C)cc(C(F)(F)F)c2C#N)c1
IC50 (second compound 0.0316 µM): > 10 µM
IC50 (second compound 0.1 µM): > 10 µM
IC50 (second compound 0.316 µM): > 10 µM
IC50 (second compound 1 µM): > 10 µM
IC50 (second compound 3.16 µM): > 10 µM
IC50 (second compound 10 µM): > 10 µM
viability, T/C [1]: 90.8%
viability, T/C [2]: 100%
viability, T/C [3]: 86.1%
viability, T/C [4]: 89.3%
viability, T/C [5]: 89.2%
viability, T/C [6]: 102%
viability, T/C [7]: 96.3%
viability, T/C [8]: 89.2%
viability, T/C [9]: 85.3%
viability, T/C [10]: 96.9%
viability, T/C [11]: 105%
viability, T/C [12]: 91.2%
viability, T/C [13]: 102%
viability, T/C [14]: 88.5%
viability, T/C [15]: 85.2%
viability, T/C [16]: 90.1%
viability, T/C [17]: 85.8%
viability, T/C [18]: 89%
viability, T/C [19]: 88.5%
viability, T/C [20]: 103%
viability, T/C [21]: 96.3%
viability, T/C [22]: 100%
viability, T/C [23]: 102%
viability, T/C [24]: 88.1%
viability, T/C [25]: 101%
viability, T/C [26]: 83.7%
viability, T/C [27]: 103%
viability, T/C [28]: 100%
viability, T/C [29]: 87.7%
viability, T/C [30]: 95.1%
viability, T/C [31]: 94.5%
viability, T/C [32]: 84.6%
viability, T/C [33]: 89.7%
viability, T/C [34]: 89.9%
viability, T/C [35]: 103%
viability, T/C [36]: 85.3%
